Laboratory results reported in paper PMC6597546, “Identification of a potent benzoxaborole drug candidate for treating cryptosporidiosis” (Nature Communications, 2019).
“And” between values parts separate entries of the source, which are not always exact repeats. Equal entries are not always repeated.

How the values were obtained:
Cytotoxicity Jurkat (3d) = type: cell-based; conditions: human, Jurkat cells, 25 µM highest concentration tested
[1] = test system: C. parvum (Bunch Grass Farms Iowa isolate); assay: Time-kill curve assay in HCT-8 cells; type: cell-based, Cryptosporidium parvum
Experimental: The invasion assay, DNA replication assay, asexual to sexual stage conversion, and time-kill curve assays were performed using fluorescence microscopy to enumerate parasites and host cell nuclei. Staining protocols are individually described for each assay. Unless noted otherwise, the details of image acquisition were as follows. An inverted Nikon Eclipse Ti2000 microscope with an automated stage and Perfect Focus was used with NIS-Elements Advanced Research software (Nikon, USA, version 4.30.01) to image the wells. The microscope was programmed to focus on the center of each well and then take a 3 × 3 composite image per well using a 20 × (0.45 NA) objective. Images were exported as .tiff files and parasites and host nuclei counted using a custom macro on ImageJ (National Institutes of Health, version 1.52a). Data were analyzed using Microsoft Excel and GraphPad Prism (version 6.01). […] C. parvum Iowa isolate oocysts (Bunch Grass Farms, Deary, ID) were treated to induce excystation and added to >90% confluent HCT-8 cells in 384-well plates. […] The monolayers were then washed, fixed, and stained with Vicia villosa lectin and DAPI at the indicated time points, and imaged as for the C. parvum growth assay. Separate 384-well plates were used for each time point. Parasite numbers were normalized to host cell nucleus numbers and expressed as the percentage of host cells infected. Drug-induced parasite decay was isolated from the reduction in parasites over time that occurs spontaneously in the HCT-8 culture system by expressing the number of parasites as the percentage of the number of parasites present at each time point under control (DMSO-treated) conditions.

[2] = test system: C. parvum (Bunch Grass Farms Iowa isolate); assay: NOD scid gamma (NSG) mouse model of established C. parvum infection; type: in vivo, NOD scid gamma mice; conditions: for reduction of parasite shedding: after 4 days of treatment
Experimental: NOD scid gamma mice (NOD.Cg-Prkdcscid Il2rgtm1Wjl/SzJ)[55] (NSG) were used to model chronic Cryptosporidium infection. All NSG mouse studies were performed in compliance with animal care guidelines and with approval by the University of Vermont Institutional Animal Care and Use Committee. NSG mice with normal flora were purchased from The Jackson Laboratory (Bar Harbor, ME) and were housed for at least a week for acclimatization. […] Fecal parasite shedding was measured using a quantitative PCR (qPCR) assay, and the primers named above as Cp18s forward and Cp18s reverse.

[3] = test system: Escherichia coli and Salmonella typhimurium; assay: AMES bacterial reverse mutation assay; conditions: five strains with and without S9, up to 5000 µg per plate
Experimental: In vitro safety profiling studies were conducted by Ricerca Biosciences (Taipei, Taiwan) and WuXi AppTec (Suzhou, China). Ricerca performed a Lead Profiling and Adverse Reaction Enzyme panel of 109 off-target enzymes and receptors. This included the hERG K+ ion channel, which is associated with cardiac tachyarrhythmias, and used a radioligand binding competition format with 10 µM test compound for 1 h at 25 °C. For the enzyme and receptor panel, competitive inhibition at 10 µM of test compound was the most common assay format. The AMES bacterial reverse mutation assay detects point mutations in Escherichia coli and Salmonella typhimurium as an indicator of mutagenic activity. Bacterial strains were obtained from Molecular Toxicology (Boone, NC).

[4] = Plasma Protein Binding (bovine); type: in vitro ADME; conditions: read-out: Plasma Protein Binding (PPB) (converted)
in vivo = conditions: male, Sprague-Dawley, rat, po
Experimental: A repeated oral dose toxicity and separate toxicokinetics (TK) study were performed in male rats by WuXi AppTec Company (Suzhou, China). […] Animals were individually housed in solid bottom plastic cages with bedding in compliance with the US Animal Welfare Act. All rat studies were performed using ∼8-week-old Sprague-Dawley male rats (Rattus novegicus)/Crl: CD[SD] […] Cage side clinical observations of condition and behavior (i.e., gait, stool, activity level, atonia, coat soiling and grooming, skin turgor, posture, priapism, piloerection) were performed twice daily during the dosing phase, and weights and food consumption were measured daily. At termination, all study animals were evaluated for erythrocyte count, absolute reticulocyte count, alkaline phosphatase, and triglycerides by fasting the animals overnight and obtaining blood from the abdominal aorta at necropsy as a terminal procedure under deep anesthesia (pentobarbital). A complete necropsy and histopathologic studies (hematoxylin and eosin staining) of large intestine, small intestine, stomach, and any gross lesions were performed on all animals on day 7 of dosing. […] Serum was collected from vehicle-control animals at 1 h and 4 h after dosing on days 1 and 7. […] Following completion of blood collection, TK animals were euthanized by CO2 inhalation and exsanguination without necropsy.

CC1(C)OB(O)c2cc(NC(=O)c3ccc(-n4cccn4)cc3Cl)ccc21 [AN7973]
IC50 at 3 d (Cytotoxicity Jurkat (3d)): > 25 µM | concentration giving maximum rate of parasite elimination ([1]; Cryptosporidium parvum, HCT-8, read-out: concentration at which maximum rate of parasite elimination was achieved (∼3 × EC90)): ~630 nM | time-kill curve result ([1]; compound added ~24 h after infection of HCT-8): appeared to act rapidly and drove progressive elimination of C. parvum | % Parasite / host nuclei ([1]; compound at 3 x EC90, 0 h exposure): 25.13% and 23.57% and 25.93% and 26.94% | % Parasite / host nuclei ([1]; compound at 3 x EC90, 6 h exposure): 24.78% and 34.35% and 30.89% | % Parasite / host nuclei ([1]; compound at 3 x EC90, 24 h exposure): 15.27% and 14.74% and 17.96% and 15.11% | % Parasite / host nuclei ([1]; compound at 3 x EC90, 48 h exposure): 20.76% and 12.39% and 18.77% and 13.91% | % Parasite / host nuclei ([1]; compound at 3 x EC90, 72 h exposure): 10.40% and 6.55% and 11.33% and 7.26% | % Parasite / host nuclei ([1]; compound at 6 x EC90, 0 h exposure): 26.94% and 25.13% and 23.57% and 25.93% | % Parasite / host nuclei ([1]; compound at 6 x EC90, 6 h exposure): 28.91% and 27.91% and 32.17% and 31.13% | % Parasite / host nuclei ([1]; compound at 6 x EC90, 24 h exposure): 21.47% and 14.00% and 13.65% and 12.46% | % Parasite / host nuclei ([1]; compound at 6 x EC90, 48 h exposure): 10.56% and 11.11% and 14.16% and 9.59% | % Parasite / host nuclei ([1]; compound at 6 x EC90, 72 h exposure): 5.25% and 6.00% and 13.91% and 10.57% | % Parasite / host nuclei ([1]; compound at 9 x EC90, 0 h exposure): 26.94% and 25.13% and 23.57% and 25.93% | % Parasite / host nuclei ([1]; compound at 9 x EC90, 24 h exposure): 14.18% and 12.40% and 14.28% and 11.31% | % Parasite / host nuclei ([1]; compound at 9 x EC90, 48 h exposure): 12.96% and 14.27% and 16.75% and 18.20% | % Parasite / host nuclei ([1]; compound at 12 x EC90, 0 h exposure): 26.94% and 25.13% and 23.57% and 25.93% | % Parasite / host nuclei ([1]; compound at 12 x EC90, 24 h exposure): 11.36% and 18.45% and 14.90% and 9.34% | % Parasite / host nuclei ([1]; compound at 12 x EC90, 48 h exposure): 10.50% and 12.64% and 5.47% and 10.46% | % Parasite / host nuclei ([1]; compound at 12 x EC90, 72 h exposure): 8.81% and 7.07% and 9.43% and 15.51% | % Parasite / host nuclei ([1]; compound at EC50, 0 h exposure): 26.94% and 25.13% and 23.57% and 25.93% | % Parasite / host nuclei ([1]; compound at EC50, 6 h exposure): 20.18% | % Parasite / host nuclei ([1]; compound at EC50, 24 h exposure): 55.77% and 58.71% and 35.00% and 58.88% | % Parasite / host nuclei ([1]; compound at EC50, 48 h exposure): 63.82% and 58.60% and 55.54% and 55.88% | % Parasite / host nuclei ([1]; compound at EC50, 72 h exposure): 29.51% and 58.62% and 41.28% and 34.71% | % Parasite / host nuclei ([1]; compound at EC90, 0 h exposure): 26.94% and 25.13% and 23.57% and 25.93% | % Parasite / host nuclei ([1]; compound at EC90, 24 h exposure): 31.22% and 39.05% and 28.47% and 33.72% | % Parasite / host nuclei ([1]; compound at EC90, 48 h exposure): 43.81% and 37.66% and 41.76% and 32.99% | % Parasite / host nuclei ([1]; compound at EC90, 72 h exposure): 28.05% and 29.96% and 37.03% and 23.24% | time required for 99.9% parasite reduction ([1]; in vitro): ~92 h | in vitro parasite elimination half-life ([1]; one-phase exponential decay, 12 × EC90, referenced to DMSO control): ~9.2 h | reduction of parasite shedding ([2]; 10 mg per kg once daily oral gavage): > 90% | parasite fecal shedding (qPCR), individual mice ([2]; 10 mg/kg, D7 (before treatment)): 58.681 oocysts/mg feces and 43.169 oocysts/mg feces and 158.993 oocysts/mg feces and 120.558 oocysts/mg feces | parasite fecal shedding (qPCR), individual mice ([2]; 10 mg/kg, D11): 7.142 oocysts/mg feces and 1.830 oocysts/mg feces and 16.882 oocysts/mg feces and 7.589 oocysts/mg feces | reduction of parasite shedding ([2]; 25 mg per kg once daily oral gavage): > 99% | parasite fecal shedding (qPCR), individual mice ([2]; 25 mg/kg, D7 (before treatment)): 379.464 oocysts/mg feces and 632.650 oocysts/mg feces and 267.595 oocysts/mg feces and 299.397 oocysts/mg feces | parasite fecal shedding (qPCR), individual mice ([2]; 25 mg/kg, D11, ND = not detected, lower limit of detection 0.1): 0.825 oocysts/mg feces | adverse effects in NSG mice ([2]; treated NSG mice gained weight normally): no adverse effects were observed | Ames test for mutagenic potential [3]: negative | fraction unbound [4]: 0.04 | NOAEL at 7 days (in vivo): > 80 mg/kg/day
